Where a name gives a salt, the structure may show the parent alone.
Columns and labels:
Settings in all cases: 72 h
Caco-2 [1] = test: drug sensitivity score (DSS) for viability; higher = more toxic; extreme values may be limits of the assay
Calu-3 [2] = test: as above
Vero E6 [3] = test: as above
HepG2 [4] = test: as above
U2OS [5] = test: as above
Caco-2 [6] = test: cell viability relative to DMSO; higher = less toxic
Calu-3 [7] = test: as above
Vero E6 [8] = test: as above
HepG2 [9] = test: as above
U2OS [10] = test: as above
Caco-2 [11] = test: relative viability EC50 (midpoint between 100% and the lowest measured viability); higher = less toxic
Calu-3 [12] = test: as above
Vero E6 [13] = test: as above
HepG2 [14] = test: as above
U2OS [15] = test: as above

Structure (SMILES)	drug sensitivity score (Caco-2 [1])	drug sensitivity score (Calu-3 [2])	drug sensitivity score (Vero E6 [3])	drug sensitivity score (HepG2 [4])	drug sensitivity score (U2OS [5])	cell viability (Caco-2 [6]; 1 nM)	cell viability (Caco-2 [6]; 10 nM)	cell viability (Caco-2 [6]; 100 nM)	cell viability (Caco-2 [6]; 1000 nM)	cell viability (Caco-2 [6]; 10000 nM)	cell viability (Calu-3 [7]; 1 nM)	cell viability (Calu-3 [7]; 10 nM)	cell viability (Calu-3 [7]; 100 nM)	cell viability (Calu-3 [7]; 1000 nM)	cell viability (Calu-3 [7]; 10000 nM)	cell viability (Vero E6 [8]; 1 nM)	cell viability (Vero E6 [8]; 10 nM)	cell viability (Vero E6 [8]; 100 nM)	cell viability (Vero E6 [8]; 1000 nM)	cell viability (Vero E6 [8]; 10000 nM)	cell viability (HepG2 [9]; 1 nM)	cell viability (HepG2 [9]; 10 nM)	cell viability (HepG2 [9]; 100 nM)	cell viability (HepG2 [9]; 1000 nM)	cell viability (HepG2 [9]; 10000 nM)	cell viability (U2OS [10]; 1 nM)	cell viability (U2OS [10]; 10 nM)	cell viability (U2OS [10]; 100 nM)	cell viability (U2OS [10]; 1000 nM)	cell viability (U2OS [10]; 10000 nM)	relative viability EC50 (Caco-2 [11])	relative viability EC50 (Calu-3 [12])	relative viability EC50 (Vero E6 [13])	relative viability EC50 (HepG2 [14])	relative viability EC50 (U2OS [15])
COc1cc(CCc2cc(NC(=O)c3ccc(N4CC(C)NC(C)C4)cc3)n[nH]2)cc(OC)c1 (stereo not given) [AZD4547]	0.2	0	0	5	4.5	87.5%	93.8%	99.3%	104%	80.4%	101%	107%	93.8%	99.4%	99.8%	95.7%	98.1%	92.5%	96.2%	100%	95.7%	105%	87.3%	90.7%	37%	101%	94.8%	95.2%	88.2%	49.5%	> 10000 nM	> 10000 nM	> 10000 nM	1990 nM	1610 nM
CCCC1(CCC)CCC2(CCN(CCCN(CC)CC)C2)CC1 [atiprimod]	5.1	7.7	5.9	8.3	5.3	99.2%	94.7%	98.4%	94.9%	20.7%	103%	103%	101%	86.9%	0.7%	97.9%	98.7%	101%	92.1%	16.9%	91.1%	94.8%	93.2%	83.3%	0%	101%	105%	95.8%	96.1%	14.6%	2660 nM	2100 nM	2380 nM	1890 nM	2820 nM
CO[C@H](C(=O)[C@@H](O)[C@@H](C)O)[C@@H]1Cc2cc3cc(O[C@H]4C[C@@H](O[C@H]5C[C@@H](O)[C@H](O)[C@@H](C)O5)[C@@H](O)[C@@H](C)O4)c(C)c(O)c3c(O)c2C(=O)[C@H]1O[C@H]1C[C@@H](O[C@H]2C[C@@H](O[C@H]3C[C@](C)(O)[C@H](O)[C@@H](C)O3)[C@H](O)[C@@H](C)O2)[C@H](O)[C@@H](C)O1 [plicamycin]	18.9	20.8	9.2	29.1	29.5	101%	95%	42.4%	58.1%	65.5%	107%	88.4%	48.5%	24%	28.1%	92.6%	105%	95.6%	73.5%	4.9%	107%	99.9%	5.2%	4.4%	6.1%	96.4%	100%	5.9%	1%	1.5%	24.5 nM	50.9 nM	1460 nM	32.1 nM	36 nM
Nc1cc(C(Cl)=C(Cl)Cl)c(S(N)(=O)=O)cc1S(N)(=O)=O [clorsulon]	0	0	0	0	0	94.8%	90.5%	98.5%	93.8%	102%	90.1%	97.6%	104%	97.2%	101%	105%	106%	96.8%	102%	100%	100%	106%	94.2%	101%	100%	96.9%	97%	100%	97%	102%	> 10000 nM	> 10000 nM	> 10000 nM	> 10000 nM	> 10000 nM
COc1ccccc1N1CCN(CCCNc2cc(=O)n(C)c(=O)n2C)CC1 [urapidil]	0	0	0	0	0	92.1%	96.4%	97.9%	101%	104%	96.7%	98.5%	96.4%	102%	107%	100%	100%	98.8%	98.6%	102%	105%	90.1%	107%	95.8%	95%	91.1%	97.5%	95.2%	101%	103%	> 10000 nM	> 10000 nM	> 10000 nM	> 10000 nM	> 10000 nM
N#Cc1ncccn1 [2-cyanopyrimidine]	0	0	0	0	0	98.5%	93.7%	101%	99.3%	102%	102%	99.3%	101%	91.6%	96.9%	93.8%	104%	97%	106%	94.6%	102%	100%	93.7%	93.6%	111%	100%	104%	96.7%	99.6%	97.9%	> 10000 nM	> 10000 nM	> 10000 nM	> 10000 nM	> 10000 nM
CCSC(=N)N [EIT-hydrobromide]	0	0	0	0	0	97.7%	98.1%	91.1%	102%	107%	108%	96.8%	96.9%	104%	103%	94.2%	99.4%	96.9%	95.8%	105%	96.9%	90%	94.3%	102%	103%	94.2%	101%	97.5%	100%	103%	> 10000 nM	> 10000 nM	> 10000 nM	> 10000 nM	> 10000 nM
